Our source for the EC50 values is ChEMBL document CHEMBL1144125, “Excavatolides U-Z, new briarane diterpenes from the gorgonian briareum excavatum” (1999).

Type in all cases: functional
Holding throughout (conditions): read-out: ED50 (the source's name)

One test concerns KB. The test is described as follows: Cytotoxicity against human KB cells.
The next test concerns P388. The test is described as follows: Cytotoxicity against mouse P388 cells.
The next test has as its system A549. The test is described as follows: Cytotoxicity against human A549 cells.
Another test concerns HT-29. Description: Cytotoxicity against human HT-29 cells.

SMILES strings stand for the structures. In brackets after ≈: the same amount, converted by molar mass.

For `CCCC(=O)O[C@@H]1C=C[C@]2(C)[C@H](OC(C)=O)C[C@@H](OC(C)=O)/C(C)=C\[C@@H]3OC(=O)[C@@]4(C)O[C@]34[C@H](OC(C)=O)[C@H]2[C@@]1(C)O`, the EC50 in the test with KB, in the test on P388, with A549 and in the test with HT-29 was > 50 µg/mL in each case.
As for `CCC(=O)O[C@@H]1C[C@@H](OC(C)=O)[C@@]2(C)C=C[C@@H](OC(C)=O)[C@](C)(O)[C@@H]2[C@@H](OC(C)=O)[C@]23O[C@]2(C)C(=O)O[C@H]3/C=C\1C`, the EC50 with KB is > 50 µg/mL; with P388, 9.5 µg/mL (≈ 16.4 µM); in the test on A549 it was > 50 µg/mL; in the test on HT-29, 15.1 µg/mL (≈ 26.1 µM).
Consider `CCCC(=O)O[C@H]1C/C(C)=C\[C@@H]2OC(=O)[C@@]3(C)O[C@]23[C@H](OC(C)=O)[C@H]2[C@@H](C)[C@@H](OC(=O)CC)C[C@H](OC(C)=O)[C@]2(C)[C@@H]1OC(C)=O` [EXCAVATOLIDE U], for which the EC50 in the test on KB, in the test with P388, in the test with A549 and in the test on HT-29 was > 50 µg/mL in each case.
Turning to `CCC(=O)O[C@H]1C[C@H](OC(C)=O)[C@@]2(C)[C@H]([C@H]1C)[C@@H](OC(C)=O)[C@]13O[C@]1(C)C(=O)O[C@H]3/C=C(/C)C[C@H](OC(C)=O)[C@H]2OC(C)=O` [EXCAVATOLIDE V], the EC50 in the test on KB turned out to be 7 µg/mL (≈ 11.2 µM); in the test with P388, 3.9 µg/mL (≈ 6.26 µM); in the test with A549 it was 19.1 µg/mL (≈ 30.7 µM); in the test with HT-29 it was 20.4 µg/mL (≈ 32.8 µM).
The matching figures for `CCC(=O)O[C@H]1C[C@H](OC(C)=O)[C@@]2(C)[C@H]([C@H]1C)[C@@H](O)[C@]13O[C@]1(C)C(=O)O[C@H]3/C=C(/C)CC[C@H]2OC(C)=O` [EXCAVATOLIDE W]: > 50 µg/mL, 19.4 µg/mL (≈ 37.1 µM), > 50 µg/mL and > 50 µg/mL.
